Data from paper PMC4295023 (Investigational New Drugs, 2014).
Like-named read-outs stand apart in the source and are kept apart here. Each block holds one compound with its values, some of them ahead of it.

Tests used:
[1] = Pharmacokinetic analysis of blood samples (noncompartmental); format: in vivo, human; details: for AUC(0-t) / Cmax: human
Procedure: Blood samples were collected pre-, 1, 2, 4, 6, 8, 12, and 24 h post-dose on Days 1 and 2 of Cycles 1 and 2. […] Noncompartmental PK parameters were calculated using WinNonlin (Pharsight, Mountain View, CA).

RCC = system: RCC; set-up: method as in PMID 22056247; details: after first line therapy, cited from earlier work

AUC(0-t) ([1]; blood, sorafenib, steady state (cycle 2), HCC patients, tivantinib 360 mg BID and sorafenib 400 mg BID, read-out: AUC0-12h): 43300 ng·h/mL | AUC0-12h ([1]; sorafenib, steady state (cycle 2), non-HCC patients, tivantinib 360 mg BID and sorafenib 400 mg BID): 39,906 ± 20,604 ng*hr/mL
Structure (SMILES): CNC(=O)c1cc(Oc2ccc(NC(=O)Nc3ccc(Cl)c(C(F)(F)F)c3)cc2)ccn1 [sorafenib, reference compound]
mPFS (RCC; sorafenib arm): 4.7 months

AUC(0-t) ([1]; in vivo, tivantinib, cycle 2, one HCC patient, tivantinib 240 mg BID with sorafenib 400 mg BID, read-out: AUC0-12 h): 6690 ng·h/mL | Cmax ([1]; in vivo, tivantinib, cycle 2, one HCC patient, tivantinib 240 mg BID with sorafenib 400 mg BID, read-out: Cmax): 879 ng/mL | AUC(0-t) ([1]; in vivo, tivantinib, steady state (cycle 2), HCC patients, tivantinib 360 mg BID and sorafenib 400 mg BID, read-out: AUC0-12h): 12400 ng·h/mL | Cmax ([1]; in vivo, tivantinib, steady state (cycle 2), HCC patients, tivantinib 360 mg BID and sorafenib 400 mg BID, read-out: mean Cmax): 1510 ng/mL | AUC(0-t) ([1]; in vivo, tivantinib, steady state (cycle 2), non-HCC patients, tivantinib 360 mg BID and sorafenib 400 mg BID, read-out: AUC0-12h): 8740 ng·h/mL | Cmax ([1]; in vivo, tivantinib, steady state (cycle 2), non-HCC patients, tivantinib 360 mg BID and sorafenib 400 mg BID, read-out: mean Cmax): 1320 ng/mL
Structure (SMILES): O=C1NC(=O)[C@@H](c2cn3c4c(cccc24)CCC3)[C@@H]1c1c[nH]c2ccccc12 [tivantinib, Tivantinib]

Structure (SMILES): CNC(=O)c1ccccc1Sc1ccc2c(/C=C/c3ccccn3)n[nH]c2c1 [axitinib]
mPFS (RCC; axitinib arm): 6.7 months
